According to patent US20210369812A1, “OSTEOINDUCTIVE PEPTIDES, COMPOSITIONS, IMPLANTS, AND METHODS OF USE” (The Board of Regents of the University of Oklahoma, priority 2018, published 2021):
“Also recorded” adds a separate entry of the source.

Columns and labels:
hMSCs = assay: qPCR of osteoblast marker genes; format: cell-based, human; conditions: 26 days on phage films; normalized to GAPDH; relative to negative control (basal media)
Method: Gene expression was normalized to the reference gene, GAPDH. All fold changes are relative to a negative control (basal media with no peptides or phage) which represents the baseline at zero-fold change. […] All data represent the mean±standard deviation. (*P≤0.05, **P≤0.01, ***P≤0.001).
hMSCs were seeded (1×10^3 cells per culture plate) on to phage films as well as relevant control plates. The cells were then cultured for 26 days. The cells then were processed with a Power SYBR™ Green Cells-to-CT™ Kit. The number of cells was adjusted to be 5×10^3 cells per lysis reaction. All other parameters were kept the same as the manufacturer's protocol for this kit. The gene expression of osteopontin, osteocalcin, and collagen type 1A were measured as a fold change normalized to the reference gene GAPDH and a negative control (basal media+ cells but no phage) such that the baseline at zero-fold change represents the negative control. For temperature cycling and measuring CT values, a MiniOpticon Real Time PCR System was used.

[1] = test system: human mesenchymal stem cells (hMSCs); assay: Live cell binding through immunofluorescence; format: cell-based; conditions: 10^12 phages/ml
Method: Human mesenchymal stem cells (hMSCs) were grown to roughly 60% plate coverage in a 48-well tissue culture plate according to the company Lonza's culturing protocols. […] The hMSCs were then blocked with 0.5% BSA (dissolved in cell media) for 1 hour. The cell media for the hMSCs was then replaced with 1 ml of new cell media having of concentration of 10^12 phages/ml. Next, the plates were washed once with 400 μl of phosphate buffered saline (PBS) at a pH of 7.4. The hMSCs were then incubated with Anti-M13 Bacteriophage Coat Protein g8p antibody [RL-ph2] (ab9225) at a 1:1000 dilution in cell media (200 μl per well). The wells were then washed again with PBS (400 μl per wash). Next, the hMSCs were incubated with the secondary antibody, Goat-anti mouse AF-488 (Abcam) for 1 hour (1 ug/ml final concentration of antibody in media). The wells were then washed again with PBS (400 μl per wash). A Hoechst nuclear stain was used to stain the nuclei (PureBlu™ Hoechst 33342 Nuclear Staining Dye #1351304 from BioRad) according to the company's protocol. Cell Mask™ Orange Plasma Membrane Stain was used to stain membranes (CellMask™ Orange Plasma Membrane Stain Catalog number: C10045 from Thermo Fisher Scientific) according to the company's protocol. The phages binding to the cells were then imaged on a Nikon Eclipse Ti fluorescent microscope.

BMPR2 = target: T1, BMPR2 (Homo sapiens, UniProt Q13873); assay: Enzyme-linked immune sorbent assay for receptor binding (BMPR2); conditions: peptide on p3 of M13 phage; absorbance 450 nm; n=4; vs wild type phage
T1 construct: purchased G&P Biosciences
T1 sequence (Q13873 27-150 limits assumed): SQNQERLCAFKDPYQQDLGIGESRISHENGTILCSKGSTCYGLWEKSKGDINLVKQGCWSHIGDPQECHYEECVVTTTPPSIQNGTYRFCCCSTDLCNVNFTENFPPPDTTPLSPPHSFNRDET
Excerpt: Groups having the same lowercase letter assigned (above the bar) were not statistically different from each other. Groups having different letters assigned (above the bar) were statistically different from each other. […] The primary antibody was mouse anti-g3p (p8) IgG. The secondary antibody was anti-mouse IgG conjugated with horseradish peroxidase. The substrate, 3,3′,5,5′-Tetramethylbenzidine was detected at 450 nm after stopping the reaction with 1 M HCl.
Blocking buffer (0.1 M NaHCO3 (pH 8.6), 5 mg/ml BSA. Filter sterilized, stored at 4° C.) was prepared. TBS (50 mM Tris-HCl (pH 7.5), 150 mM NaCl, autoclaved, stored at room temperature) was prepared. Separate solutions of the target receptors were then made. For BMPR1A, a 10 μg/ml stock solution was made. For BMPR2, a 10 μg/ml solution was also made. Separate wells with n=4 for each different peptide bearing phage group were then coated with one of the receptors. […] After a brief pilot test, it should be noted that using 10^10 phage/ml was determined to work best, but other concentrations of virus also worked consistently. […] Then, […] of freshly prepared 3,3′,5,5′-Tetramethylbenzidine (TMB) was added to each well and the absorbance at 370 nm and 652 nm was monitored for 1 hour using an ELISA plate reader. […] The absorbance at 450 nm for each well was then measured.

Sequence | Osteopontin gene expression, fold change (hMSCs) | Binding of peptide-bearing phages to live hMSCs [1] | Relative binding strength in ELISA to BMPR2 (BMPR2)
SGTQDSMVGWNK (Completely synthesized in the lab - Ph.D.-12 Phage Display Peptide Library Kit (New England Biolabs)) | greater osteopontin production than the wild type, but not greater than the Lonza osteogenic media; also recorded: statistically significant advantage over the wild type phage films | bound to what appeared to be the same location as the outer membrane; also recorded: demonstrated an ability to bind to the outer membrane | statistically significant binders
VHVPLHRGAVSA (Completely synthesized in the lab - Ph.D.-12 Phage Display Peptide Library Kit (New England Biolabs)) | greater osteopontin production than the Lonza osteogenic media; also recorded: statistically significant advantage over the wild type phage films; also recorded: statistically significant advantage over the positive control | bound to what appeared to be the same location as the outer membrane; also recorded: demonstrated an ability to bind to the outer membrane | 
